Data reported in PubChem BioAssay (NCI).
Values joined by “and” are separate entries in the source; they are usually repeats but may differ in a detail not shown here. Identical values can stand only once.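 The compound was tested at five concentrations on cells cultured in 96-well plates, with a 48-hour exposure period. GI50 = concentration required for 50% inhibition of growth. TGI denotes the concentration required for complete inhibition of growth.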

How the values were obtained:
Assay in all cases: NCI tumour cell line growth inhibition, 48 h
[1] = test system: SK-MEL-5 melanoma
[2] = test system: MDA-MB-435
[3] = test system: T-47D breast
[4] = test system: NCI-H226 lung
[5] = test system: HS 578T breast
[6] = test system: NCI-H460 lung
[7] = test system: OVCAR-8 ovarian
[8] = test system: MOLT-4 leukemia
[9] = test system: A549 NSCLC
[10] = test system: ACHN renal

Structure (SMILES)	TGI [1]	TGI [2]	TGI [3] [µM]	TGI [4]	TGI [5] [µM]	TGI [6]	TGI [7]	TGI [8]	TGI [9]	TGI [10]	GI50 [1]	GI50 [2]	GI50 [3]	GI50 [4]	GI50 [5]	GI50 [6]	GI50 [7]	GI50 [9]	GI50 [10]	GI50 [8]
CC(=O)OCc1ccc(O)c(C=O)c1	> 100 µM	> 100 µM	> 100	> 100 µM	> 100	> 100 µM	> 100 µM	> 100 µM	> 100 µM	> 100 µM	–	–	–	–	–	–	–	–	–	–
COc1ccc2c3c(c4ccccc4cc13)C(=O)N(CCN(C)CCN)C2=O	1.28 µM	1.71 µM	12.6	0.383 µM	3.67	0.323 µM	1.61 µM	0.301 µM	0.243 µM	0.17 µM	0.186 µM	0.343 µM	0.0877 µM	0.145 µM	1.19 µM	0.0129 µM	0.107 µM	0.0113 µM	0.0187 µM	–
Fc1cccc(CSc2ncnc3c2ncn3C2CCCS2)c1 (stereo unspecified)	22.5 µM	38.4 µM	> 100	61.4 µM	> 100	22.7 µM	75.7 µM	24 µM	> 100 µM	39.7 µM	–	–	–	–	–	–	–	–	–	–
Nc1nc2ccc3[nH]ncc3c2c2c1CCCC2	4.08 µM	3.36 µM	11.7	4.59 µM	6.8	4.56 µM	18.8 µM	10.8 µM	13.4 µM	10.5 µM	1.54 µM	1.52 µM	2.55 µM	1.48 µM	1.95 µM	1.6 µM	2.14 µM	2.24 µM	1.56 µM	2.81 µM
Oc1ccc2ccccc2c1C1NN=C(c2ccccc2)S1 (stereo unspecified)	2 µM	42.4 µM	33.5	14.2 µM	44.4	11 µM	> 100 µM	> 56.9 µM	84.1 µM	> 40 µM	0.342 µM	0.632 µM	0.525 µM	0.647 µM	2.41 µM	0.34 µM	0.439 µM	0.587 µM	0.343 µM	0.467 µM
COc1cc(-c2csc(NC(=O)Nc3cc(C(F)(F)F)cc(C(F)(F)F)c3)n2)cc(OC)c1OC	3.24 µM	10.5 µM	9.65	12 µM	6.9	10.8 µM	13 µM	8.99 µM	12.4 µM	10.6 µM	1.57 µM	2.81 µM	1.93 µM	2.87 µM	2.24 µM	2.74 µM	2.73 µM	2.62 µM	2.78 µM	2.17 µM
CC(=O)OC1CC[C@@]2(C)C(CC[C@]3(C)C2CC=C2[C@@H]4CC(C)(C)CCC4(C)CCC23C)[C@@]1(C)C(=O)O (stereo partly specified)	47.9 µM	44.1 µM	44.9	50.2 µM	45.3	37 µM	36.9 µM	47.3 µM	33.9 µM	30.7 µM	–	–	–	–	–	–	–	–	–	–
CN1CCC(C(=O)Nc2n[nH]c3nc(-c4ccc(O)cc4)c(Br)cc23)CC1	2.3 µM and 4.14 µM	5.58 µM and 5.61 µM	> 16.9	8.55 µM and > 15.5 µM	> 15.1	> 25 µM	> 20.2 µM	> 25 µM and 18.9 µM	> 25 µM	> 25 µM	0.599 µM and 1.3 µM	1.57 µM and 1.45 µM	1.12 µM and 1.72 µM	0.674 µM and 1.06 µM	1.15 µM and 0.208 µM	1.97 µM and 1.1 µM	0.965 µM and 1.77 µM	5.72 µM and 7.38 µM	5.37 µM and 6.3 µM	1.88 µM and 1.51 µM
Cn1c(/C=C(\C#N)c2cccc(C(F)(F)F)c2)nc2c(N3CCOCC3)nc(Cl)nc21	2.97 µM	2.43 µM	3.25	3.18 µM	4.38	3.61 µM	2.16 µM	1.55 µM	3.3 µM	1.57 µM	1.6 µM	1.02 µM	0.846 µM	1.36 µM	1.26 µM	1.67 µM	0.567 µM	1.31 µM	0.444 µM	0.381 µM
Clc1cccc(N2CCN(CCN3CCc4c([nH]c5ccccc45)C3c3cccnc3)CC2)c1 (stereo unspecified)	> 100 µM	> 100 µM	> 100	> 62.4 µM	> 100	> 100 µM	> 100 µM	> 100 µM	> 100 µM	> 100 µM	–	–	–	–	–	–	–	–	–	–
c1cncc(-c2nc3ccccc3s2)c1	> 100 µM	> 100 µM	> 100	> 100 µM	> 100	> 100 µM	> 100 µM	> 100 µM	> 100 µM	> 100 µM	> 100 µM	> 100 µM	> 100 µM	> 100 µM	50.7 µM	> 100 µM	> 100 µM	> 100 µM	95.1 µM	73.7 µM
N#Cc1ccc(C2C3=C(CCCC3=O)OC3=C2C(=O)c2ccccc2C3=O)cc1 (stereo unspecified)	3.25 µM	0.444 µM	2.24	4.62 µM	9.37	13.3 µM	4.79 µM	5.53 µM	22.3 µM	2.89 µM	1.72 µM	0.216 µM	0.453 µM	2.02 µM	3.21 µM	3.64 µM	0.722 µM	7.66 µM	1.55 µM	1.63 µM
O=C(/C=C/c1cccc([N+](=O)[O-])c1)c1ccc(O)c(CN2CCN(c3cc4c(cc3F)c(=O)c(C(=O)O)cn4C3CC3)CC2)c1	3.25 µM	3.21 µM	4.99	15.2 µM	7.11	19.3 µM	8.77 µM	8.41 µM	17.2 µM	2.7 µM	1.7 µM	1.67 µM	1.85 µM	3.49 µM	2.43 µM	3.43 µM	2.52 µM	3.1 µM	1.4 µM	2.25 µM
CCOC(=O)NC1=C(N2CC2)C(=O)C(NC(=O)OCC)=C(N2CC2)C1=O	15 µM and 9.97 µM and 7.95 µM	7.28 µM	16.8	25 µM and 20 µM and 43 µM	24.7	20 µM and 16.2 µM and 31 µM	14.3 µM and 14.5 µM	12.6 µM and 11 µM	25 µM and 43 µM and 40.2 µM	20.3 µM and 12.7 µM and 23.6 µM	4.7 µM	–	–	18 µM and 11 µM	–	0.505 µM and 0.721 µM	4.71 µM	6.46 µM and 1.64 µM and 3.09 µM	1.32 µM and 1.06 µM	3.25 µM
